Experimental data published in patent US20080300147A1, “Detection and Treatment of Fibrotic Disorders” (priority 2004, published 2008).

Tests used:
[1] = test system: myometrial smooth muscle cells (MSMC); test: Realtime PCR mRNA expression in treated MSMC; type: cell-based, human
Protocol: (§1) Isolation and Culture of Leiomyoma and Myometrial Smooth Muscle Cells. […] Only untreated tissues were used for isolation of LSMC and MSMC. […] LSMC and MSMC were cultured in 6-well plates at an approximate density of 10^6 cells/well in DMEM-supplemented media containing 10% FBS. After reaching visual confluence, the cells were washed in serum-free media and incubated for 24 hrs under serum-free, phenol red-free condition (Chegini, N et al. Mol Hum Reprod, 2002, 8:1071-8).
(§2) Quantitative RealTime PCR. Realtime PCR was utilized for verification of 10 differentially expressed and regulated genes identified in leiomyoma and myometrium as well as LSMC and MSMC from untreated and GnRHa-treated cohorts. The selection of these genes was based not only on their expression values (up or downregulation), but classification and biological functions important to leiomyoma growth and regression, regulation by ovarian steroids, GnRHa and TGF-β. They are IL-11, CITED2, Nur77, EGR3, TGIF, TIEG, p27, p57, GAS-1 and GPRK5 representing cytokines, transcription factors, cell cycle regulators and signal transduction.
(§3) Determination of TGF-β1 on global gene expression in LSMC and MSMC. All the materials utilized for this study including isolation of leiomyoma and myometrial cells are identical to those described in detail above. To determine the effect of TGF-β1 on global gene expression in LSMC and MSMC, the cells were cultured in 6-well plates at approximate density of 10^6 cells/well in DMEM-supplemented media containing 10% FBS. […] The cells were then treated with 2.5 ng/ml of TGF-β1 (R & D System, Minneapolis, […].) for 2, 6 and 12 hours. […] The cells were washed and then treated with TGF-β1 (2.5 ng/ml) for 2 hours. Parallel experiments using untreated cells were used as controls including an additional control for TGF-β type II receptor antisense and sense experiments.
(§4) Total cellular RNA was isolated from LSMC- and MSMC-treated and untreated controls and subjected to microarray analysis. To maintain standard and allow for comparative analysis, the GeneChips used in this study were utilized, simultaneously processed and their gene expression values were subjected to global normalization and transformation. Following these unsupervised assessments the coefficient of variation was calculated for each probe set across all the chips used in this study, and the selected gene expression values of this study were independently subjected to supervised learning including R programming analysis and ANOVA with false discovery rate selected at p<0.001 (Moustakas, A. Immunol Lett, 2002, 82:85-91; Verrecchia, F. et al. J Biol Chem, 2001, 276:17058-17062). The genes identified in these cohorts were analyzed for functional annotation and visualized using Database for Annotation, Visualization, and Integrated Discovery (DAVID) software with integrated GoCharts. Following the analysis, we selected 12 of the differentially expressed and regulated genes, including 10 identified and validated in leiomyoma and myometrium from untreated and GnRHa-treated cohorts, as well as LSMC and MSMC treated in vitro with GnRHa, for validation in response to TGF-β-time dependent action using Realtime PCR. They include IL-11, EGR3, CITED2, TIEG, TGIF, Nur77, p27, p57, GAS-1 and GPRK5. In addition, the expression of Runx1 and Runx2, transcription factors that interact with TGF-β receptor signaling pathways (Zavadil, J. et al. Proc Natl Acad Sci USA, 2001, 98:6686-6691), was validated in LSMC and MSMC as well as in leiomyoma and myometrium from GnRHa-treated and untreated cohorts. Detail description of the materials and methods for Realtime PCR as well as data analysis is provided in Chegini, N. et al. J Soc Gynecol Investig, 2003, 10:161-71.
(§5) Isolation and Culture of Leiomyoma and Myometrial Smooth Muscle Cells. Leiomyoma and myometrial smooth muscle cells (LSMC and MSMC) were isolated and cultured as previously described (Chegini, N. et al. Mol Hum Reprod, 2002, 8:1071-1078). […]

[2] = test system: leiomyoma smooth muscle cells (LSMC); test: Realtime PCR mRNA expression in treated LSMC; type: cell-based, human
Protocol: as §1, §2, §3, §4, §5

[3] = TGF-β1 2.5 ng/ml, 2, 6 and 12 hours
[4] = TGF-β1 2.5 ng/ml, 2, 6 and 12 hrs
[5] = U0126 20 μM 2 hrs, then GnRHa 0.1 μM 2 hrs
[6] = U0126 20 μM 2 hrs, then TGF-β1 2.5 ng/ml 2 hrs

## TGF-β1: human recombinant TGF-β1 (R&D System), used at 2.5 ng/ml
[1]; [3]
  GAS1 expression in MSMC: suppression
  Nur77 expression in MSMC: transiently increased
  TGIF expression in MSMC: transiently increased
  TIEG expression in MSMC: transiently increased
  p27Kip1 expression in MSMC: biphasic fashion
  p57Kip2 expression in MSMC: biphasic fashion
[1]; [4]
  CCN3 mRNA expression in MSMC: inhibiting
  S100A4 mRNA expression in MSMC: moderately inhibiting
  fibulin-1C mRNA expression in MSMC: increasing
  increase of CCN4 mRNA expression in MSMC: two fold
[1]; TGF-β1 2.5 ng/ml, declined to control levels
  increase in FMOD expression in MSMC: 5-10 fold
[1]; TGF-β1 2.5 ng/ml, gradual reduction to control levels after 12 hrs
  FMOD expression in MSMC: significantly increased
[2]; [3]
  Gas1 expression in LSMC: suppressed
  Nur77 expression in LSMC: transiently increased
  TGIF expression in LSMC: transiently increased
  TIEG expression in LSMC: transiently increased
  p27Kip1 expression in LSMC: suppressed
  p57Kip2 expression in LSMC: suppressed
[2]; [4]
  CCN3 mRNA expression in LSMC: inhibiting
  S100A4 mRNA expression in LSMC: moderately inhibiting
  fibulin-1C mRNA expression in LSMC: moderately inhibiting
  increase of CCN4 mRNA expression in LSMC: two fold
[2]; TGF-β1 2.5 ng/ml, inhibition after 12 hrs
  FMOD expression in LSMC: either no effect, or inhibited

## N#CC(=C(/N)Sc1ccccc1N)/C(C#N)=C(\N)Sc1ccccc1N [U0126]
[1]; [5]
  GnRHa-mediated action on CCN2 expression in MSMC: altered
  GnRHa-mediated action on CCN3 expression in MSMC: altered
  GnRHa-mediated action on CCN4 expression in MSMC: altered
  GnRHa-mediated action on S100A4 expression in MSMC: altered
  GnRHa-mediated action on fibulin-1C expression in MSMC: altered
[1]; U0126 20 μM 2 hrs, then GnRHa 2 hrs, compared to untreated control
  expression of FMOD in MSMC treated with GnRHa: increased
[1]; [6]
  TGF-β-mediated CCN3 expression in MSMC: inhibited
  TGF-β-mediated CCN4 expression in MSMC: inhibited
  TGF-β-mediated S100A4 expression in MSMC: inhibited
  TGF-β-mediated action on CCN2 in MSMC: limited effect
  TGF-β-mediated action on FMOD in MSMC: inhibiting
  TGF-β-mediated fibulin-1C expression in MSMC: inhibited
[1]; U0126 20 μM pretreatment 2 hrs
  basal CCN2 mRNA expression in MSMC: altered
  basal CCN3 mRNA expression in MSMC: altered
  basal CCN4 mRNA expression in MSMC: altered
  basal S100A4 mRNA expression in MSMC: altered
  basal expression of FMOD in MSMC: increased
  basal fibulin-1C mRNA expression in MSMC: altered
[2]; [5]
  GnRHa-mediated action on CCN2 expression in LSMC: altered
  GnRHa-mediated action on CCN3 expression in LSMC: altered
  GnRHa-mediated action on CCN4 expression in LSMC: altered
  GnRHa-mediated action on S100A4 expression in LSMC: altered
  GnRHa-mediated action on fibulin-1C expression in LSMC: altered
[2]; U0126 20 μM 2 hrs, then GnRHa 2 hrs, compared to U0126-treated cells
  expression of FMOD in LSMC treated with GnRHa: increased
[2]; [6]
  TGF-β-mediated CCN4 expression in LSMC: inhibited
  TGF-β-mediated S100A4 expression in LSMC: inhibited
  TGF-β-mediated action on CCN2 in LSMC: limited effect
  TGF-β-mediated action on FMOD in LSMC: increased
  TGF-β-mediated fibulin-1C expression in LSMC: inhibited
[2]; U0126 20 μM pretreatment 2 hrs
  basal CCN2 mRNA expression in LSMC: altered
  basal CCN3 mRNA expression in LSMC: altered
  basal CCN4 mRNA expression in LSMC: altered
  basal S100A4 mRNA expression in LSMC: altered
  basal expression of FMOD in LSMC: increased
  basal fibulin-1C mRNA expression in LSMC: altered
